Data from patent publication US20070275935A1, “Estratriene Derivatives” (priority 2003, published 2007).

Experiments:
HASM cells = experiment: bFGF-induced HASM proliferation over 7 days on plastic or collagen-coated silastic, comparison with dexamethasone; assay type: cell-based, human; details: 1 μM, bFGF 300 pM
Description: We examined the effects of 4NO (1 μM) and the glucocorticoid dexamethasone (Dex, 100 nM) on the proliferation of HASM cells in response to bFGF (300 pM). Dexamethasone is a commonly used anti-inflammatory glucocorticoid. Cells were cultured on a standard plastic tissue culture plate. The test compounds were pre-incubated with HASM for 30 minutes before the addition of bFGF. The incubation continued for 7 days before cell enumeration (FIG. 5). Data are expressed as a percentage of the cell number in vehicle treated wells and are presented as the mean and standard error of the mean.
The response of HASM cells grown on a collagen extracellular matrix to the glucocorticoids and test compounds was also examined. Cells were cultured on a collagen-coated silastic base. HASM cells were pre-incubated with the test compounds for 30 minutes before the addition of bFGF (300 pM). The incubation continued for 7 days before cell enumeration (FIG. 6). Data are expressed as a percentage of the cell number in vehicle treated wells and are presented as the mean and standard error of the mean.

[1] = tested on: bleomycin-induced fibrosis in C57BL6 female mice; experiment: Bleomycin model of pulmonary fibrosis in mice; assay type: in vivo; details: 4NO 50 mg/kg/day i.p.
Description: The activity of CP-DM-2-11-7 was investigated using a bleomycin model of pulmonary fibrosis (Underwood et al. 2000). 4NO was administered daily commencing on the day of the bleomycin challenge, 2 hours before the mice received bleomycin. The 4NO (50 mg/kg/day, by intraperitoneal injection) was then administered throughout the 14 day period. The mice also received a daily injection of bromo-deoxyuridine (BrdU) by intraperitoneal injection). The other two groups of mice), control and bleomycin-treated received a daily intraperitoneal injection of the vehicle containing BrdU. The vehicle comprised 10% dimethyl sulphoxide in peanut oil. […]
Body weight was measured throughout the experiment. […] After a 5 minute stabilization period, values of resistance and compliance were recorded and the animal was killed by a lethal dose of pentabarbitone.
Half of each group of animals was then subjected to bronchoalveolar lavage (BAL) to generate BAL fluid (BALF) in which the number of infiltrating cells was counted by haemocytometry. […]
Tissue areas reported in Table 6 were determined by capturing images of the lung section at a 100 times magnification and importing those images into a powerpoint file. […]
A 36 point overlay was then applied to the captured image and the number of grid points that intersect with tissue was determined for each of the 10 selected fields. […]

## COc1cc2c(cc1O)C(=NOCc1ccc([N+](=O)[O-])cc1)C[C@@H]1[C@@H]2CC[C@]2(C)[C@@H](O)CC[C@@H]12 [CP-DM-2-11-7, 2-methoxy-6-(4-nitrobenzyloxy)iminoestradiol]
HASM cells; collagen-coated silastic
  effect on bFGF-induced HASM proliferation on collagen (FIG. 6): retained its effectiveness as an anti-proliferative agent
HASM cells; plastic tissue culture plate
  effect on bFGF-induced HASM proliferation on plastic (FIG. 5): markedly reduced the increase in HASM cell number to levels below that of dexamethasone
[1]; BrdU positive nuclei as percentage of total nuclei, major airway, n = 6, bleomycin alone 4.646 ± 0.8564
  Proliferation Epithelial: 3.802 ± 0.9053
[1]; magnification of 600×, bleomycin alone 1340 ± 287
  Parenchymal Cell Prolif.: 738 ± 185 positive cells/10^6 pixels
